Test results as given in ChEMBL document CHEMBL3044631, “Synthesis of 2-[4,5-dimethyl-1-(phenylamino)-1H-imidazol-2-ylthio]-N-(thiazole-2-yl)acetamide derivatives and their anticancer activities” (2013).

Legend:
Format in all cases: functional
NCI-H522 = test: Anticancer activity against Homo sapiens (human) NCI-H522 cells after 48 hr by SRB assay; settings: NCI-H522, 48 h
IGROV-1 = test: Anticancer activity against Homo sapiens (human) IGROV1 cells after 48 hr by SRB assay; settings: IGROV-1, 48 h
A549 = test: Anticancer activity against Homo sapiens (human) A549/ATCC cells assessed as cell growth promotion at 10 uM after 48 hr by SRB assay
OVCAR-5 = test: Anticancer activity against Homo sapiens (human) OVCAR5 cells after 48 hr by SRB assay; settings: OVCAR-5, 48 h
SF-268 = test: Anticancer activity against Homo sapiens (human) SF268 cells assessed as cell growth promotion at 10 uM after 48 hr by SRB assay
SK-MEL-28 = test: Anticancer activity against Homo sapiens (human) SK-MEL-28 cells assessed as cell growth promotion at 10 uM after 48 hr by SRB assay
SK-MEL-5 = test: Anticancer activity against Homo sapiens (human) SK-MEL-5 cells assessed as cell growth promotion at 10 uM after 48 hr by SRB assay
786-0 = test: Anticancer activity against Homo sapiens (human) 786-0 cells assessed as cell growth promotion at 10 uM after 48 hr by SRB assay
A498 [1] = test: Anticancer activity against Homo sapiens (human) A498 cells after 48 hr by SRB assay; settings: A498, 48 h
OVCAR-3 = test: Anticancer activity against Homo sapiens (human) OVCAR3 cells assessed as cell growth promotion at 10 uM after 48 hr by SRB assay
UACC-257 = test: Anticancer activity against Homo sapiens (human) UACC257 cells after 48 hr by SRB assay; settings: UACC-257, 48 h
UACC-62 [2] = test: Anticancer activity against Homo sapiens (human) UACC62 cells after 48 hr by SRB assay; settings: UACC-62, 48 h
EKVX = test: Anticancer activity against Homo sapiens (human) EKVX cells assessed as cell growth promotion at 10 uM after 48 hr by SRB assay
LOX IMVI = test: Anticancer activity against Homo sapiens (human) LOXIMVI cells after 48 hr by SRB assay
M14 = test: Anticancer activity against Homo sapiens (human) M14 cells after 48 hr by SRB assay; settings: M14, 48 h
HOP-62 = test: Anticancer activity against Homo sapiens (human) HOP62 cells after 48 hr by SRB assay; settings: HOP-62, 48 h
KM12 [3] = test: Anticancer activity against Homo sapiens (human) KM12 cells assessed as cell growth promotion at 10 uM after 48 hr by SRB assay
OVCAR-8 = test: Anticancer activity against Homo sapiens (human) OVCAR8 cells assessed as cell growth promotion at 10 uM after 48 hr by SRB assay
NCI-H23 = test: Anticancer activity against Homo sapiens (human) NCI-H23 cells assessed as cell growth promotion at 10 uM after 48 hr by SRB assay
UACC-62 [4] = test: Anticancer activity against Homo sapiens (human) UACC62 cells assessed as cell growth promotion at 10 uM after 48 hr by SRB assay
NCI-H460 = test: Anticancer activity against Homo sapiens (human) NCI-H460 cells assessed as cell growth promotion at 10 uM after 48 hr by SRB assay
MDA-MB-435 = test: Anticancer activity against Homo sapiens (human) MDA-MB-435 cells after 48 hr by SRB assay; settings: MDA-MB-435, 48 h
TK-10 = test: Anticancer activity against Homo sapiens (human) TK10 cells after 48 hr by SRB assay; settings: TK-10, 48 h
MDA-MB-231 = test: Anticancer activity against Homo sapiens (human) MDA-MB-231/ATCC cells after 48 hr by SRB assay; settings: MDA-MB-231, 48 h
U-251 = test: Anticancer activity against Homo sapiens (human) U251 cells assessed as cell growth promotion at 10 uM after 48 hr by SRB assay
ACHN = test: Anticancer activity against Homo sapiens (human) ACHN cells after 48 hr by SRB assay
HCT-116 = test: Anticancer activity against Homo sapiens (human) HCT116 cells assessed as cell growth promotion at 10 uM after 48 hr by SRB assay
RPMI-8226 = test: Anticancer activity against Homo sapiens (human) RPMI8226 cells assessed as cell growth promotion at 10 uM after 48 hr by SRB assay
SN12C = test: Anticancer activity against Homo sapiens (human) SN12C cells assessed as cell growth promotion at 10 uM after 48 hr by SRB assay
A498 [5] = test: Anticancer activity against Homo sapiens (human) A498 cells assessed as cell growth promotion at 10 uM after 48 hr by SRB assay
CAKI-1 = test: Anticancer activity against Homo sapiens (human) CAKI-1 cells assessed as cell growth promotion at 10 uM after 48 hr by SRB assay
BT-549 = test: Anticancer activity against Homo sapiens (human) BT549 cells after 48 hr by SRB assay; settings: BT-549, 48 h
SK-OV-3 = test: Anticancer activity against Homo sapiens (human) SKOV3 cells after 48 hr by SRB assay; settings: SK-OV-3, 48 h
HCT-15 = test: Anticancer activity against Homo sapiens (human) HCT15 cells assessed as cell growth promotion at 10 uM after 48 hr by SRB assay
KM12 [6] = test: Anticancer activity against Homo sapiens (human) KM12 cells after 48 hr by SRB assay; settings: KM12, 48 h

## COc1ccc(Nn2c(SCC(=O)Nc3nc(-c4ccc(Cl)cc4)cs3)nc(C)c2C)cc1
NCI-H522
  GI50: 5.05 µM
  LC50 (50% lethal concentration): > 100 µM
  TGI: > 100 µM
IGROV-1
  GI50: 5.67 µM
  LC50 (concentration killing 50% of cells): > 100 µM
  TGI: > 100 µM
A549
  Activity: 44%
OVCAR-5
  GI50: > 100 µM
  LC50: > 100 µM
  TGI: > 100 µM
SF-268
  Activity: 66.13%
SK-MEL-28
  Activity: 82.63%
SK-MEL-5
  Activity: -21.47%
786-0
  Activity: 59.54%
A498 [1]
  GI50: 2.22 µM
  LC50: > 100 µM
  TGI: 56.5 µM
OVCAR-3
  Activity: 60.75%
UACC-257
  GI50: 2.97 µM
  LC50: > 100 µM
  TGI: 41.1 µM
UACC-62 [2]
  GI50: 3.62 µM
  LC50: > 100 µM
  TGI: > 100 µM
EKVX
  Activity: 41.94%
LOX IMVI
  GI50: 3.02 µM
  LC50 (50% lethal concentration): > 100 µM
  TGI: 44.2 µM
M14
  GI50: 3.02 µM
  LC50: > 100 µM
  TGI: > 100 µM
HOP-62
  LC50: > 100 µM
KM12 [3]
  Activity: 43.08%
OVCAR-8
  Activity: 43.88%
NCI-H23
  Activity: 31.88%
UACC-62 [4]
  Activity: 49.53%
NCI-H460
  Activity: 39.32%
MDA-MB-435
  GI50: 3.22 µM
  LC50 (concentration killing 50% of cells): > 100 µM
  TGI: > 100 µM
TK-10
  GI50: 14.8 µM
  LC50 (50% lethal concentration): > 100 µM
  TGI: 80.9 µM
MDA-MB-231
  GI50: 8.37 µM
  TGI: > 100 µM
MDA-MB-231; read-out: LC50 (the source's name)
  CC50: > 100 µM
U-251
  Activity: 43.51%
ACHN
  GI50: 2.27 µM
  LC50 (concentration killing 50% of cells): > 100 µM
  TGI: 8.76 µM
HCT-116
  Activity: 27.81%
RPMI-8226
  Activity: 35.7%
SN12C
  Activity: 67.16%
A498 [5]
  Activity: 69.49%
CAKI-1
  Activity: 34.44%
BT-549
  GI50: 6.46 µM
  LC50: > 100 µM
  TGI: 82 µM
SK-OV-3
  GI50: 4.24 µM
  LC50 (50% lethal concentration): > 100 µM
  TGI: > 100 µM
HCT-15
  Activity: 59.76%
KM12 [6]
  GI50: 1.84 µM
  LC50 (concentration killing 50% of cells): > 100 µM
  TGI: 11.1 µM
